In EP3692101B1, “BRILLIANT BLUE (BBG) DYE DERIVATIVES AND STAINING COMPOSITIONS COMPRISING THE SAME FOR SELECTIVELY STAINING BIOLOGICAL SUBSTRATES” (priority 2017, dated 2019):

How the values were obtained:
retina = experiment: Ex-vivo staining of porcine eyes, dye extraction and HPLC quantification in retina near the peeled area; details: ex-vivo swine eyes; for increase in the dyes content in the retina with respect to the staining formulation according to the invention: p=0.004
Protocol: (§1) To this end, a staining composition according to the invention was prepared having the following formulation (% by weight). • dye: Benzyl-BBG according to Example 4: 0.025% • Sodium phosphate monobasic dihydrate: 0.368% (SIGMA ALDRICH) • Sodium phosphate bibasic dihydrate: 0.711% (SIGMA ALDRICH) • Sodium chloride: 0.400% (SIGMA ALDRICH) • water for injectables: up to 100% (FRESENIUS KABI ITALIA S.R.L.).
(§2) This staining composition was compared with two staining composition available on the market, more specifically: • a staining composition including BBG and marketed under the trade name of ILM-BLUE® (D.O.R.C. Dutch Ophthalmic Research Center (International) B.V.), and with • a staining composition including methyl-BBG according to WO 2016/189475 marketed under the trade name of VIEW-ILM (AL.CHI.MI.A. S.r.l.).
(§3) Porcine eyes were obtained from a slaughterhouse and were prepared within 5 hours after death, the eyes were placed on a plastic holder, and a 360-degree limbal incision was performed for corneal removal, followed by total iris removal. Whole vitreous was gently extracted.
Next, 1 ml of BSS was placed in the eye and 40 µl of dye formulation was gently placed in the eye, by a Gilson pipet, for 30 seconds; then the BSS along the dye were removed and the eye rinsed with BSS. […]
Retina and ILM tissue samples obtained as described above were weighed and homogenized in 250-500 µl of methanol. […] The residues were reconstituted in 100 µl of mobile phase by vortexing for 120 s, filtered again on 0.45 µm filters and, finally, 20 µl aliquots were injected onto the chromatographic apparatus (each sample was analyzed in triplicate). […]
(§4) Quantification of the dye molecule was performed using 6-10 points external regression curves performed at 613 nm. […]
(§5) In the data analysis, statistical differences of ex-vivo data are determined using analysis of variance (ANOVA) followed by the Bonferroni-Dunn post hoc pairwise comparison procedure. […]

[1] = tested on: proteins and protein chains; experiment: SDS-PAGE protein staining, whole set of molecular weight standards (spots versus background); details: result in words; dye 0.05% by weight/volume
Protocol: The dye molecules according to the invention were tested in order to show their higher selectivity for proteins and protein chains with respect to BBG. For this purpose, SDS-PAGE electrophoresis tests were performed in order to compare the Benzyl-BBG according to the invention (Example 4) and the Ethyl-BBG according to Example 2 with a commercially available grade of BBG (Sigma-Aldrich 90% purity).
A set of molecular weight standards was created by mixing different amounts of known proteins (E.coli beta-galactosidase - 116.3 kDa, bovine serum albumin - 66.5 kDa, chicken ovalbumin - 42.7 kDa and equine cytochrome C - 12,384 Da) in such a way as to obtain bands of similar intensity. In order to do so, an inverse relationship between amount (as nanograms of protein) and molecular weight of any protein was initially achieved, and small adjustments were experimentally made. Polyacrylamide gel electrophoresis was done in 9% precast gels (Bio-Rad) at 20V for 60-90 minutes in denaturing conditions; standards were loaded in triplicate on separate lanes. […]

ILM = experiment: Ex-vivo staining of porcine eyes, dye extraction and HPLC quantification in peeled ILM; details: ex-vivo swine eyes; for amounts of the dye molecule in the ILM (mean): 40 µl dye formulation in 1 ml BSS for 30 seconds, mean of 6, BBG 0.025% (ILM-BLUE), methyl-BBG 0.03% (VIEW-ILM), Benzyl-BBG 0.025%
Protocol: as §1, §2, §3
Next, 1 ml of BSS was placed in the eye and 40 µl of dye formulation was gently placed in the eye, by a Gilson pipet, for 30 seconds; then the BSS along the dye were removed and the eye rinsed with BSS.
The peeling of ILM was carried out by forceps and the tissue placed in an Eppendorf tube, the rest of retina near the area of ILM peeling was collected and placed in another Eppendorf tube.
The average amount of ILM tissue was of about 2 mg, whereas the average amount of retina tissue was of about 20 mg.
All tissues (ILM and retina) were stored at -20°C before HPLC analysis.
Retina and ILM tissue samples obtained as described above were weighed and homogenized in 250-500 µl of methanol. The homogenates were then transferred in an Eppendorf tube, ultrasonically extracted using a Branson Sonifier, centrifuged at 1,000 x g for 10 min and filtered on 0.45 µm syringe filters. The filtrates were transferred into labeled, clean test tubes and evaporated to dryness under a stream of nitrogen. The residues were reconstituted in 100 µl of mobile phase by vortexing for 120 s, filtered again on 0.45 µm filters and, finally, 20 µl aliquots were injected onto the chromatographic apparatus (each sample was analyzed in triplicate). […]
as §4, §5

[2] = cited from earlier work

SMILES: CCOc1ccc(Nc2ccc(C(=C3C=CC(=[N+](CC)Cc4cccc(S(=O)(=O)[O-])c4)C=C3C)c3ccc(N(CC)Cc4cccc(S(=O)(=O)O)c4)cc3C)cc2)cc1 [BBG, Coomassie Brilliant Blue G-250]
- increase in the dyes content in the retina with respect to the staining formulation according to the invention (retina): 20.1 fold

SMILES: CCOc1ccc(N(Cc2ccccc2)c2ccc(C(=C3C=CC(=[N+](CC)Cc4cccc(S(=O)(=O)[O-])c4)C=C3C)c3ccc(N(CC)Cc4cccc(S(=O)(=O)O)c4)cc3C)cc2)cc1 [Benzyl-BBG]
- amounts of the dye molecule in the retina (mean) (retina; 40 µl dye formulation in 1 ml BSS for 30 seconds, mean of 6, BBG 0.025% (ILM-BLUE), methyl-BBG 0.03% (VIEW-ILM), Benzyl-BBG 0.025%): 19.69 ng/mg tissue
- difference between the spot intensity of Benzyl-BBG and Ethyl-BBG [1]: No significant difference
- amounts of the dye molecule in the ILM (mean) (ILM): 214.88 ng/mg tissue
- amounts of the dye molecule in the ILM (mean) (ILM; listed as benzyl-BBG): about 215 ng/mg tissue
- increase of dye content in ILM with respect to the known formulation including BBG (ILM; p = 0,002): 2.9 fold
- increase of dye content in ILM with respect to the known formulation including methyl-BBG (ILM; p<0,001): 6.0 fold

SMILES: CCOc1ccc(N(C)c2ccc(C(=C3C=CC(=[N+](CC)Cc4cccc(S(=O)(=O)[O-])c4)C=C3C)c3ccc(N(CC)Cc4cccc(S(=O)(=O)O)c4)cc3C)cc2)cc1 [methyl-BBG]
- increase in the dyes content in the retina with respect to the staining formulation according to the invention (retina): 10.9 fold

SMILES: c1ccc(CNCc2ccccc2)cc1 [dibenzylamine]
- pKa [2]: 8.52
